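96-well plates; 48 h exposure; 5 concentrations. Endpoints by linear interpolation between flanking doses. Not reached: highest tested concentration assigned. Here, GI50 denotes the concentration required for 50% inhibition of growth.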 Activity calls are given as the source filed them. Cut-off read from the data, not from the text of the source: active = GI50 up to about 1.1 µM and inactive = higher.
Key:
Test in all cases: inhibition of tumour cell growth, NCI panel, 48 h
LOX IMVI = test system: LOX IMVI
SK-MEL-28 = test system: SK-MEL-28
SF-268 = test system: SF-268
Malme-3M = test system: Malme-3M
ACHN = test system: ACHN
SN12C = test system: SN12C
K562 = test system: K562
SK-OV-3 = test system: SK-OV-3
NCI-H460 = test system: NCI-H460
OVCAR-8 = test system: OVCAR-8
CCRF-CEM = test system: CCRF-CEM
A498 = test system: A498
SF-539 = test system: SF-539
EKVX = test system: EKVX
HCT-116 = test system: HCT-116
U-251 = test system: U-251
HL-60 = test system: HL-60

| SMILES | GI50 (LOX IMVI) | GI50 (SK-MEL-28) | GI50 (SF-268) | GI50 (Malme-3M) | GI50 (ACHN) | GI50 (SN12C) | GI50 (K562) | GI50 (SK-OV-3) | GI50 (NCI-H460) | GI50 (OVCAR-8) | GI50 (CCRF-CEM) | GI50 (A498) | GI50 (SF-539) | GI50 (EKVX) | GI50 (HCT-116) | GI50 (U-251) | GI50 (HL-60) |
| --- | --- | --- | --- | --- | --- | --- | --- | --- | --- | --- | --- | --- | --- | --- | --- | --- | --- |
| O=c1[nH]nc2ccccc2c1Cc1ccccc1 | > 100 µM (inactive) | > 100 µM (inactive) | > 100 µM (inactive) | > 100 µM (inactive) | > 100 µM (inactive) | > 100 µM (inactive) | > 100 µM (inactive) | > 100 µM (inactive) | > 100 µM (inactive) | > 100 µM (inactive) | > 100 µM (inactive) | > 100 µM (inactive) | > 100 µM (inactive) | > 100 µM (inactive) | > 100 µM (inactive) | > 100 µM (inactive) | – |
| CC(=O)C1C(=O)N(C(C)C)C[C@@H]2CCC(=O)C[C@H]12 (some centres not stated) | > 100 µM (inactive) | > 100 µM (inactive) | > 100 µM (inactive) | > 100 µM (inactive) | – | > 100 µM (inactive) | > 100 µM (inactive) | > 100 µM (inactive) | > 100 µM (inactive) | > 100 µM (inactive) | > 100 µM (inactive) | > 100 µM (inactive) | > 100 µM (inactive) | > 100 µM (inactive) | > 100 µM (inactive) | > 100 µM (inactive) | > 100 µM (inactive) |
| CC(C)C1CCC/C=C/C=C/C=C/C=C/C(OC2OC(C)C(O)C(N)C2O)CC2OC(O)(CC(O)CC(O)C(O)CCC(=O)O1)CC(O)C2C(=O)O (configuration not stated) | – | > 52.5 µM (inactive) | > 52.5 µM (inactive) | > 52.5 µM (inactive) | > 52.5 µM (inactive) | > 52.5 µM (inactive) | > 52.5 µM (inactive) | > 52.5 µM (inactive) | – | > 52.5 µM (inactive) | > 52.5 µM (inactive) | > 52.5 µM (inactive) | > 52.5 µM (inactive) | – | > 52.5 µM (inactive) | > 52.5 µM (inactive) | > 52.5 µM (inactive) |
| C=CNC(=O)NC(=O)CSc1nc(=O)c(-c2ccccc2NC(=O)C(F)(F)F)n[nH]1 | > 100 µM (inactive) | 66.2 µM (inactive) | 37.4 µM (inactive) | 15.5 µM (inactive) | – | > 100 µM (inactive) | > 100 µM (inactive) | 47.6 µM (inactive) | 48.4 µM (inactive) | > 100 µM (inactive) | > 100 µM (inactive) | – | 74.6 µM (inactive) | 75 µM (inactive) | > 100 µM (inactive) | 23.7 µM (inactive) | – |
| Cc1c2n(c(=O)[nH]c1=O)C1OC(CO)C(O2)C1O (configuration not stated) | > 100 µM (inactive) | > 100 µM (inactive) | > 100 µM (inactive) | – | > 100 µM (inactive) | > 100 µM (inactive) | > 100 µM (inactive) | > 100 µM (inactive) | > 100 µM (inactive) | > 100 µM (inactive) | > 100 µM (inactive) | 23 µM (inactive) | > 100 µM (inactive) | > 100 µM (inactive) | > 100 µM (inactive) | > 100 µM (inactive) | > 100 µM (inactive) |
| O=C(c1ccc(Cl)cc1)N(C(=S)N1CCN(c2ccccn2)CC1)C1CCCCC1 | 56.1 µM (inactive) | > 100 µM (inactive) | 27.3 µM (inactive) | > 100 µM (inactive) | 43.6 µM (inactive) | > 100 µM (inactive) | 37.6 µM (inactive) | > 100 µM (inactive) | 30 µM (inactive) | > 100 µM (inactive) | 48.5 µM (inactive) | – | 61.7 µM (inactive) | – | 36.6 µM (inactive) | 37.2 µM (inactive) | 17.3 µM (inactive) |
| O=C(O)c1ccccc1/N=N/c1ccc2oc(=O)c(C(=O)Nc3ccccc3)cc2c1 | 35.9 µM (inactive) | 36.6 µM (inactive) | – | 23.7 µM (inactive) | 50.2 µM (inactive) | 45.1 µM (inactive) | 39.6 µM (inactive) | 52.8 µM (inactive) | 36.6 µM (inactive) | 38.1 µM (inactive) | 28.6 µM (inactive) | – | 31.3 µM (inactive) | 30.1 µM (inactive) | 29.6 µM (inactive) | 42.4 µM (inactive) | 24.4 µM (inactive) |
| Cc1c(C(=O)/C=C/c2c(Cl)cccc2Cl)c(=O)n(-c2ccccc2)n1C | 11.8 µM (inactive) | 36.1 µM (inactive) | 24.1 µM (inactive) | 53.8 µM (inactive) | 25.8 µM (inactive) | 24.4 µM (inactive) | – | 43 µM (inactive) | 11.4 µM (inactive) | 16.7 µM (inactive) | 2.74 µM (inactive) | 22.4 µM (inactive) | > 10 µM (inactive) | 50.1 µM (inactive) | 8.53 µM (inactive) | 0.0147 µM (active) | – |
| CCCN(CCCN)/[N+]([O-])=N\O | – | > 100 µM (inactive) | > 100 µM (inactive) | > 100 µM (inactive) | > 100 µM (inactive) | > 100 µM (inactive) | > 100 µM (inactive) | > 100 µM (inactive) | > 100 µM (inactive) | > 100 µM (inactive) | > 100 µM (inactive) | – | > 100 µM (inactive) | 0.24 µM (active) | > 100 µM (inactive) | > 100 µM (inactive) | > 100 µM (inactive) |
| C[S+](C)CCOC(=O)C(=[N+]=[N-])c1ccc([N+](=O)[O-])cc1 | – | – | > 100 µM (inactive) | > 100 µM (inactive) | > 100 µM (inactive) | > 100 µM (inactive) | > 100 µM (inactive) | > 100 µM (inactive) | > 100 µM (inactive) | > 100 µM (inactive) | > 100 µM (inactive) | > 100 µM (inactive) | > 100 µM (inactive) | > 100 µM (inactive) | > 100 µM (inactive) | > 100 µM (inactive) | > 100 µM (inactive) |
| COC1(OC)C(N(C)C)=C(Cl)C(=O)/C1=C/C=O | 84.7 µM (inactive) | 53.8 µM (inactive) | > 100 µM (inactive) | > 100 µM (inactive) | 92 µM (inactive) | > 100 µM (inactive) | 33.1 µM (inactive) | > 100 µM (inactive) | > 100 µM (inactive) | > 100 µM (inactive) | 20.9 µM (inactive) | > 100 µM (inactive) | – | – | > 100 µM (inactive) | > 100 µM (inactive) | 77.4 µM (inactive) |
| CC(C)(C)c1cc(C(P(=O)(O)O)P(=O)(O)O)cc(C(C)(C)C)c1O | > 100 µM (inactive) | > 100 µM (inactive) | > 100 µM (inactive) | > 10 µM (inactive) | > 100 µM (inactive) | – | > 100 µM (inactive) | > 100 µM (inactive) | > 100 µM (inactive) | > 100 µM (inactive) | > 100 µM (inactive) | > 100 µM (inactive) | > 100 µM (inactive) | > 100 µM (inactive) | > 100 µM (inactive) | > 100 µM (inactive) | > 100 µM (inactive) |
| Nc1ccn(C2(CO)C=C(CO)C(O)C2O)c(=O)n1 (configuration not stated) | – | > 25.8 µM (inactive) | > 25.8 µM (inactive) | > 25.8 µM (inactive) | > 25.8 µM (inactive) | > 25.8 µM (inactive) | > 25.8 µM (inactive) | > 25.8 µM (inactive) | > 25.8 µM (inactive) | > 25.8 µM (inactive) | – | > 25.8 µM (inactive) | > 25.8 µM (inactive) | > 25.8 µM (inactive) | > 25.8 µM (inactive) | > 25.8 µM (inactive) | > 25.8 µM (inactive) |

Reference: ChEMBL document CHEMBL1201862, “PubChem BioAssay data set” (2004)
